Data set [1] concerns HMG-CoA reductase. To be noted: cited from earlier work.
Data set [2] has as its system Ras farnesylation. To be noted: Hancock et al., Casey et al., Schafer et al.; cited from earlier work.
In data set [3] the target is T1, Farnesyl-protein transferase (FTase) from bovine brain (Bos taurus, UniProt P29702+P49355).
T1 construct: Farnesyl-protein transferase (FTase) from bovine brain was chromatographed on DEAE-Sephacel; from tissue; host or cells: bovine brain, partially purified (DEAE-Sephacel, N-octyl agarose, mono Q)
Put plainly: Inhibition of Ras farnesylation in vitro (FTase assay with Ras-CVLS and [3H]FPP). To be noted: for IC50: Ras-CVLS 3.5 μM, 0.25 μM [3H]FPP, partially purified enzyme, compound (9) or (10), under assay conditions open dicarboxylate form. Format: biochemical. As for the experimental part:
The intrinsic farnesyl-protein transferase (FTase) activity of representative compounds of this invention was measured by the assay as described below:
Farnesyl-protein transferase (FTase) from bovine brain was chromatographed on DEAE-Sephacel (Pharmacia, 0-0.8M NaCl gradient elution), N-octyl agarose (Sigma, 0-0.6M NaCl gradient elution), and a mono Q HPLC column (Pharmacia, 0-0.3M NaCl gradient). Ras-CVLS (Cys-Val-Leu-Ser) at 3.5 μM, 0.25 μM [^3 H]FPP, and the indicated compounds were incubated with this partially purified enzyme preparation. The FTase inhibition data presented below is a measurement of the ability of the test compound to inhibit Ras farnesylation in vitro.

Data set [4] is described as follows: pH-dependent equilibrium / solution form of anhydride (9) and diacid (10), followed by UV. Format: physicochemical. To be noted: for predominant form in solution (diacid/anhydride equilibrium): in a solution, pH dependent. From the text:
The equilibrium between diacid (10) and anhydride (9) in a solution is pH dependent. […] However, when basified with dil NaOH, this maximum shifted to λmax 243 run. This shift is clear evidence of opening of the anhydride into the diacid. [drawing 8]
The latter band underwent a hypsochromic shift to 240 run after addition of dil NAOH.

SMILES strings stand for the structures.

Broadly, the IC50 is the point on the concentration scale where inhibition reaches its midpoint.

Consider `CC[C@H](C)C(=O)O[C@H]1C[C@@H](C)C=C2C=C[C@H](C)[C@H](CC[C@@H]3C[C@@H](O)CC(=O)O3)[C@H]21` [lovastatin], for which the “inhibition of HMG-CoA reductase” value in data set [1] is “inhibit HMG-CoA reductase”. For the same compound, the “Inhibition of Ras farnesylation in vivo” value in data set [2] is listed as “Inhibition of Ras farnesylation in vivo has been demonstrated”.
As to `CCCCCCCC/C=C\CCCCCCC1=C(C)C(=O)OC1=O` [Compound (9)], the half-maximal inhibitory concentration (IC50) in data set [3] came out at 110 nM. In data set [4], the “predominant form in solution (diacid/anhydride equilibrium)” value is given as “predominates when the solution is acidic”. In addition, the “reactivity with CH3OH” value in data set [4] (methanolic solution) is “reacts slowly with CH3 OH”.
`CCCCCCCC/C=C\CCCCCC/C(C(=O)O)=C(\C)C(=O)O` [Compound (10)] returned a half-maximal inhibitory concentration (IC50) in data set [3] of 110 nM. Further, in data set [3] (open diacid (10) trapped as a diisopropylethylamine salt), the “Ras farnesyl transferase inhibitory activity of the diisopropylethylamine salt” value is “without any loss of Ras farnesyl transferase inhibitory activity”. The “form under assay conditions” value in data set [4] (CH3OH-HEPES buffer solution (7:5), pH 7.5) is “exists substantially in the open dicarboxylate form”. Besides, in data set [4], the “predominant form in solution (diacid/anhydride equilibrium)” value was “predominates when the solution is basic”. The “existence in solution by pH” value in data set [4] (in solution) was “exists in solution at pH 7 and above”.
Regarding `CC[C@H](C)C(=O)O[C@H]1CCC=C2C=C[C@H](C)[C@H](CC[C@@H]3C[C@@H](O)CC(=O)O3)[C@H]21` [compactin], the “inhibition of HMG-CoA reductase” value in data set [1] was “inhibit HMG-CoA reductase”. For the same compound, the “Inhibition of Ras farnesylation in vivo” value in data set [2] is on record as “Inhibition of Ras farnesylation in vivo has been demonstrated”.
